Data taken from US9145382B2, “Organic compound and electrochromic device using the same” (CANON KABUSHIKI KAISHA, priority 2014, dated 2015).

What was measured:
Format in all cases: physicochemical
[1] = Absorption spectrum in the neutral (bleached) state, UV-visible spectrophotometer; conditions: in chloroform
Method: The illustrated compound A-1 obtained was dissolved in chloroform, and the resulting solution was measured using an ultraviolet and visible spectrophotometer (V-560 manufactured by JASCO Corporation). As a result, an absorption spectrum illustrated in FIG. 6 was obtained.
Solutions prepared by dissolving compounds synthesized in Examples in chloroform were measured for the absorption spectra in the neutral state (bleached state) using an ultraviolet and visible spectrophotometer (V-560 manufactured by JASCO Corporation).

[2] = Measurement of solubility in propylene carbonate; conditions: for solubility: organic solvent or mixture
Text: [Measurement of Solubility in Propylene Carbonate]
Note that propylene carbonate is a solvent contained in the electrochromic layer constituting the EC device. Further, Ref-1 is a compound in which methyl groups having no ethylene oxide chains are substituted at the 3-position and the 4-position of the thiophene ring, and substituents (substituents corresponding to A1 and A2 in general formula [1]) at the ortho positions of the phenyl group bonded to the thiophene ring are hydrogen atoms (no substitution).

[3] = Durable stability against oxidation-reduction cycle (square-wave potential program, CV oxidation peak current); conditions: for Durability evaluation: change in oxidation peak current (CV) before and after 10000 oxidation-reduction cycles, 1.0×10^−4 mol/L in 0.1 mol/L tetrabutylammonium perchlorate in dichloroethane
Method: The durable stability against the oxidation-reduction cycle of the organic EC compound according to the present invention was evaluated. Specifically, the durability against repetition of an oxidation-reduction was evaluated using the illustrated compound A-1, the illustrated compound A-3 and Ref-1 as evaluation targets.
The measurement of durability against repetition of an oxidation-reduction was performed using a solution prepared by dissolving each compound in a predetermined solvent as a target sample, using a measuring apparatus provided with a work electrode, a counter electrode and a reference electrode. Here, the electrodes provided in the measuring apparatus and the solvent used will be shown below.
Work electrode: Glassy carbon
(§1) Counter electrode: Platinum
(§2) Reference electrode: Silver
Supporting electrolyte (solvent): Solution of tetrabutylammonium perchlorate in dichloroethane (0.1 mol/L)
Solution concentration: 1.0×10^−4 mol/L
The above solution was subjected to a square-wave potential program including oxidation at a constant potential and reduction at a constant potential for 10000 times. Here, the oxidation at a constant potential is a process of applying a potential equal to or higher than the oxidation potential of a target compound to the above solution for 10 seconds, and the reduction at a constant potential is a process of applying a potential of 0 V based on the reference electrode (Ag/Ag^+) to the above solution for 10 seconds.
The durability against repetition of an oxidation-reduction was evaluated based on the change in the amount of oxidation peak current in cyclic voltammetry (CV) measurement before and after the oxidation-reduction cycles for 10000 times. Specifically, when the rate of change in the amount of oxidation peak current was less than 20%, the durability was evaluated as Good, and when the rate of change was 20% or more, the durability was evaluated as Poor.

[4] = Absorption spectrum in the oxidized (colored) state, oxidation at constant potential; conditions: 5.0×10^−4 mol/L in 0.1 mol/L tetrabutylammonium perchlorate in propylene carbonate
Method: Next, the absorption spectra in the oxidized (colored) state were measured. Specifically, the absorption spectra were measured using a measuring cell provided with a work electrode, a counter electrode, a reference electrode and a liquid tank. Here, the electrodes provided in the measuring cell and the solute and solvent which are contained in the solution charged to the liquid tank will be shown below.
as §1, §2
Solute: Evaluation target compounds (illustrated compounds A-1 and A-3)
Solvent (supporting electrolyte): Solution of tetrabutylammonium perchlorate in propylene carbonate (0.1 mol/L)
(Note that the concentration of the solution charged to the liquid tank is 5.0×10^−4 mol/L.)
A compound was subjected to oxidation at a constant potential by applying a potential equal to or higher than the oxidation potential of the compound using the measuring cell to thereby measure the change in the absorption spectra and transmittance spectra. Here, the absorption peak wavelength in the colored state (oxidized state) and the absorption peak wavelength in the bleached state (neutral state) are shown in the following Table 3.

COCCOCc1c(-c2c(OC)cccc2OC(C)C)sc(-c2c(OC)cccc2OC(C)C)c1COCCOC [A-1]
absorption in the visible light region (neutral state) [1]: does not have absorption over the whole visible light region
Neutral absorption λmax ([1]; neutral (bleached) state): 282.0 nm
solubility [2]: ≥ 150 mM
Durability evaluation [3]: Good (when the rate of change in the amount of oxidation peak current was less than 20%, the durability was evaluated as Good)
Oxidized absorption λmax′ [4]: 415.8 nm

Cc1c(-c2ccccc2)sc(-c2ccccc2)c1C [Ref-1]
appearance of solution when a concentration of 6 mM was going to be prepared ([2]; 6 mM): turbid
solubility [2]: < 6 mM
Durability evaluation [3]: Poor (when the rate of change was 20% or more, the durability was evaluated as Poor)
number of oxidation-reduction cycles after which the amount of oxidation peak current was decreased by 20% ([3]; square-wave potential program, 10 s oxidation / 10 s reduction): about 2400 times
